Columns and labels:
Assay type in all cases: cell-based
MRGPRX2 [1] = biological target: T1, MRGPRX2 (Homo sapiens, UniProt Q96LB1); assay: MRGPRX2 β-Arrestin assay; set-up: host or cells: PathHunter CHO-K1; conditions: PathHunter CHO-K1 MRGPRX2 β-Arrestin cell line; agonist Cortistatin 14 0.25 μM
T1 sequence (Q96LB1 1-330): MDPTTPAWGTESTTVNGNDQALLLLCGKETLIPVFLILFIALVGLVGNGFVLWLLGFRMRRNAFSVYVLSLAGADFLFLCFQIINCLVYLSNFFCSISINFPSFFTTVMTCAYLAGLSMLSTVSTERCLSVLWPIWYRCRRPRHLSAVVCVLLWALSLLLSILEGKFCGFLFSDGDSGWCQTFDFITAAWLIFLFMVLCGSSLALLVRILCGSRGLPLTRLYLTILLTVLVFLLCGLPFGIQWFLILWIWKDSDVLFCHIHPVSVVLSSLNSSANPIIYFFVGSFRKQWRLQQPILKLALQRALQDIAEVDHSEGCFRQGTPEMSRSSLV
From the text: Example C: MRGPRX2 β-Arrestin Assay
This assay measures compound inhibition of β-Arrestin recruitment, which is part of the G protein-independent pathway that results from the ligand-activated GPCR phosphorylation by specific GPCR kinases. The PathHunter CHO-K1 MRPGRX2 B-Arrestin Cell line stably expressing ProLink tagged MRGPRX2 and Enzyme Acceptor Tagged B-Arrestin was purchased from Eurofins DiscoverX, (Fremont, CA).
The cells were maintained in culture medium from the Europhins DiscoverX Cell Culture Kit-107 which includes FBS, hygromycin B and G418. For the assay, the cells were harvested and were resuspended with Cell Plating Reagent 2 (Eurofins DiscoverX). Cells were added 10000 cells in 25 µL/well to a 384-well black cell culture plate (Greiner VWR, Radnor, PA) which contained 125 nL/well of compound at a selected serially diluted concentration range or DMSO. The plate was incubated at 37° C. with 5% CO2 for 1 h. 2 μL/well of agonist Cortistatin 14 was diluted in Protein Dilution Buffer, (Eurofins DiscoverX) for a final concentration of 0.25 μM, was added and the plate was incubated at 37° C. with 5% CO2 for 90 min. 14 μL/well of Detection Reagent Mix (PathHunter Detection Kit, Eurofins DiscoverX) was added to the plates and further incubated for 1 h in the dark. Plates were read on the PHERAstar microplate reader (BMG Labtech Cary, NC) measuring luminescence 0.1 to 1 second per well. Data was normalized using DMSO only wells and wells with high concentration of reference antagonist as controls. Compound IC50 curves were globally fitted with 3- or 4-parameter Hill equation in a Genedata Screener (Genedata Basel, Switzerland).

MRGPRX2 [2] = biological target: T1, MRGPRX2; assay: MRGPRX2 IP1 HTRF assay; set-up: host or cells: CHO-K1; conditions: CHO-K1 cells stably expressing human MRGPRX2; IP1 accumulation, agonist Cortistatin 14 1 μM
From the text: Example B: MRGPRX2 IP1 HTRF Assay
This assay measures compound inhibition of myo-Inositol 1 phosphate (IP1) accumulation in CHO-K1 cells. Chinese hamster ovary (CHO-K1) cells stably expressing human MRGPRX2 were purchased from GenScript (Piscataway, NJ).
For the HTRF IP1 determination, an IP-One GqKit (Perkin Elmer Cisbio, Waltham, MA), which includes all reagents and buffers in this protocol, was used. The cells were maintained in culture medium (Ham's F-12K) containing 10% (v/v) FBS, and 200 μg/mL Zeocin. For the assay, the cells were harvested and resuspended in culture medium with 2% FBS and without Zeocin, then were passed through a 40 μm filter. Cells were added at 20000 cells in a 5 μL/well to a 384-well white small volume cell culture plate (Greiner VWR, Radnor, PA) which contained 50 nL/well of test compound serially diluted at a selected concentration range in DMSO. 5 μL/well of prepared 2× Stimulation Buffer2 was then added to plates and was incubated at 37° C. with 5% CO2 for 1 h. 5 μL/well of agonist Cortistatin 14 (Bio-TechneR&D Systems, Minneapolis, MN) in 1× Stimulation Buffer 2, for a 1 μM final concentration, was then added to plates and incubated at 37° C. with 5% CO2 for 1 h. 6 μL/well of 1:20 diluted Detection Reagent Mix (d2 and Cryptate) was added to the plates and incubated for 1 h in the dark. Plates were read on the PHERAstar microplate reader (BMG Labtech Cary, NC) to determine the HTRF ratio of the acceptor and donor emission signals. The IP1 concentrations were calculated from a standard curve following the IP-One GQ kit instructions. Wells with DMSO only and wells with high concentration of reference antagonist were used as controls for normalization. Compound IC50 curves were globally fitted with 3- or 4-parameter Hill equation in a Genedata Screener (Genedata Basel, Switzerland).

MRGPRX2 [3] = biological target: T1, MRGPRX2; assay: MRGPRX2 FLIPR calcium mobilization assay; set-up: host or cells: CHO-K1; conditions: CHO-K1 cells stably expressing human MRGPRX2; Ca2+ release, agonist Cortistatin-14 at EC80
Method: Example A. MRGPRX2 FLIPR Calcium Mobilization Assay
Chinese hamster ovary (CHO-K1) cells stably expressing human MRGPRX2 were purchased from Genescript (Piscataway, NJ). The cells were maintained in culture medium (Ham's F-12K) containing 10% (v/v) FBS, 200 μg/mL Zeocin, 100 units/mL penicillin G and 100 μg/mL streptomycin (Life Technologies, Carlsbad, CA). For the assay, the cells were harvested and resuspended with culture medium without Zeocin before plating at 8000 cells per well in 20 μL in 384-well black clear bottom cell culture plates (VWR, Radnor, PA). After 24 h culture at 37° C. and 5% CO2, the cells were loaded with 20 μL/well of calcium dye (FLIPR Calcium 6 Assay Kit, Molecular Devices, San Jose, CA) diluted in loading buffer (1×Hank's Balanced Salt Solution (HBSS), 5 mM probenecid, 20 mM 4-(2-hydroxyethyl)-1-piperazineethanesulfonic acid (HEPES), pH 7.4, VWR, Radnor, PA) followed with 45 min incubation at 37° C. and 40 min at room temperature in the dark. Cells were then treated with the addition of 10 uL/well test compounds with a range of increasing concentrations diluted in the assay buffer (1×HBSS, 20 mM HEPES, pH 7.4, VWR, Radnor, PA) with FLIPR Penta (Molecular Devices. San Jose, CA) and incubated for 30 min. at room temperature. Ca^2+ release was measured with FLIPR Penta with 10 seconds basal fluorescence measurement, then 12.5 μL of 5× agonist Cortistatin-14 (Tocris, Minneapolis, MN) at final concentration corresponding to the EC80 were added followed with continued fluorescence signal monitoring for an additional 110 seconds. The base line adjusted (median of first 10s base line) max value of the Relative Fluorescence Unit (RFU) was plotted against compound concentrations. Wells with no compound were served as the positive controls, and wells with high concentration of reference antagonist were used as negative controls. IC50 curves were globally fitted with 3- or 4-parameter Hill equation in a Genedata Screener (Genedata Basel, Switzerland).

Structure (SMILES) | IC50 (MRGPRX2 [1]) [µM] | IC50 (MRGPRX2 [2]) [µM] | IC50 (MRGPRX2 [3]) [µM]
NC(=O)N1CC(CNc2cc(C(F)(F)F)nc3ccncc23)(c2ccc(F)cc2)C1 [Example 65, 3-(4-Fluorophenyl)-3-(((2-(trifluoromethyl)-1,6-naphthyridin-4-yl)amino)methyl)azetidine-1-carboxamide] | 0.1 to 1 | – | –
[2H]C([2H])([2H])NC(=O)N1CC(CNc2cc(C(F)(F)F)nc3ccc(Cl)cc23)(n2ncc3c2CCC3)C1 [Example 69, 3-(((6-Chloro-2-(trifluoromethyl)quinolin-4-yl)amino)methyl)-3-(5,6-dihydrocyclopenta[c]pyrazol-1(4H)-yl)-N-(methyl-d3)azetidine-1-carboxamide] | 0.0001 to 0.1 | – | –
[2H]C([2H])([2H])NC(=O)N1CC(CNc2cc(C(F)(F)F)nc3ccc(Cl)cc23)(n2cc(CC#N)cn2)C1 [Example 71, 3-(((6-Chloro-2-(trifluoromethyl)quinolin-4-yl)amino)methyl)-3-(4-(cyanomethyl)-1H-pyrazol-1-yl)-N-(methyl-d3)azetidine-1-carboxamide] | 0.1 to 1 | – | –
Cn1nccc1NC1CC(CNc2cc(C(F)(F)F)nc3ccc(Cl)cc23)(c2ccc(F)cn2)C1 (stereo not shown) [Example 72, 6-Chloro-N-((1-(5-fluoropyridin-2-yl)-3-((1-methyl-1H-pyrazol-5-yl)amino)cyclobutyl)methyl)-2-(trifluoromethyl)quinolin-4-amine] | 0.0001 to 0.1 | – | –
CN1CCC(C(=O)NC2CC(CNc3cc(C(F)(F)F)nc4ccc(Cl)cc34)(c3ccccc3)C2)CC1 (stereo not shown) [Example 76, N-(3-(((6-Chloro-2-(trifluoromethyl)quinolin-4-yl)amino)methyl)-3-phenylcyclobutyl)-1-methylpiperidine-4-carboxamide] | 0.0001 to 0.1 | – | –
O=C(NC1CC(CNc2cc(C(F)(F)F)nc3ccc(Cl)cc23)(c2ccccc2)C1)C(O)C(F)(F)F (stereo not shown) [Example 77, N-(3-(((6-Chloro-2-(trifluoromethyl)quinolin-4-yl)amino)methyl)-3-phenylcyclobutyl)-3,3,3-trifluoro-2-hydroxypropanamide] | 0.0001 to 0.1 | – | –
COCCN1CC(CNc2cc(C(F)(F)F)nc3ccc(Cl)cc23)(c2ccc(F)cc2)C1 [Example 92, 6-Chloro-N-((3-(4-fluorophenyl)-1-(2-methoxyethyl)azetidin-3-yl)methyl)-2-(trifluoromethyl)quinolin-4-amine] | 0.0001 to 0.1 | – | –
COc1cnn(C2(CNc3cc(C(F)(F)F)nc4ccc(Cl)cc34)CN(C(N)=O)C2)c1 [Example 102, 3-(((6-Chloro-2-(trifluoromethyl)quinolin-4-yl)amino)methyl)-3-(4-methoxy-1H-pyrazol-1-yl)azetidine-1-carboxamide] | – | 0.1 to 1 | 0.0001 to 0.1
Cc1ccn(C2(CNc3cc(C(F)(F)F)nc4ccc(Cl)cc34)CN(C(N)=O)C2)n1 [Example 103, 3-(((6-Chloro-2-(trifluoromethyl)quinolin-4-yl)amino)methyl)-3-(3-methyl-1H-pyrazol-1-yl)azetidine-1-carboxamide] | – | 0.0001 to 0.1 | 0.0001 to 0.1
N#Cc1ccn(C2(CNc3cc(C(F)(F)F)nc4ccc(Cl)cc34)CN(C(N)=O)C2)n1 [Example 104, 3-(((6-Chloro-2-(trifluoromethyl)quinolin-4-yl)amino)methyl)-3-(3-cyano-1H-pyrazol-1-yl)azetidine-1-carboxamide] | – | 0.0001 to 0.1 | 0.0001 to 0.1

Further lines, results first:

IC50 (MRGPRX2 [1]) [µM] | IC50 (MRGPRX2 [2]) [µM] | IC50 (MRGPRX2 [3]) [µM] | Structure (SMILES)
0.0001 to 0.1 | 0.0001 to 0.1 | – | OC1(C(F)(F)F)CC(CNc2cc(C(F)(F)F)nc3ccc(Cl)cc23)(c2ccccc2)C1 (stereo not shown) [Example 66, 3-(((6-Chloro-2-(trifluoromethyl)quinolin-4-yl)amino)methyl)-3-phenyl-1-(trifluoromethyl)cyclobutan-1-ol]
0.0001 to 0.1 | 0.0001 to 0.1 | – | O=C(O)C1CCC(CNc2cc(C(F)(F)F)nc3ccc(Cl)cc23)(c2ccccc2)CC1 (stereo not shown) [Example 67, 4-(((6-Chloro-2-(trifluoromethyl)quinolin-4-yl)amino)methyl)-4-phenylcyclohexane-1-carboxylic acid]
0.1 to 1 | – | – | FC(F)(F)c1cc(NCC2(n3ccc(C(F)(F)F)n3)CNC2)c2cc(Cl)ccc2n1 [Example 68, 6-Chloro-2-(trifluoromethyl)-N-((3-(3-(trifluoromethyl)-1H-pyrazol-1-yl)azetidin-3-yl)methyl)quinolin-4-amine]
0.0001 to 0.1 | 0.0001 to 0.1 | – | NS(=O)(=O)NC1CC(CNc2cc(C(F)(F)F)nc3ccc(Cl)cc23)(c2ccccc2)C1 (stereo not shown) [Example 73, N-((3-Aminosulfonylamino-1-phenylcyclobutyl)methyl)-6-chloro-2-(trifluoromethyl)quinolin-4-amine]
0.0001 to 0.1 | – | – | CN1CC(C(=O)NC2CC(CNc3cc(C(F)(F)F)nc4ccc(Cl)cc34)(c3ccccc3)C2)C1 (stereo not shown) [Example 75, N-(3-(((6-Chloro-2-(trifluoromethyl)quinolin-4-yl)amino)methyl)-3-phenylcyclobutyl)-1-methylazetidine-3-carboxamide]
– | 0.0001 to 0.1 | 0.0001 to 0.1 | NS(=O)(=O)N1CCC(CNc2cc(C(F)(F)F)nc3ccc(Cl)cc23)(c2ccc(F)cn2)CC1 [Example 100, 4-(((6-Chloro-2-(trifluoromethyl)quinolin-4-yl)amino)methyl)-4-(5-fluoropyridin-2-yl) piperidine-1-sulfonamide]
– | 0.0001 to 0.1 | 0.0001 to 0.1 | N#Cc1cnn(C2(CNc3cc(C(F)(F)F)nc4ccc(Cl)cc34)CN(C(N)=O)C2)c1 [Example 101, 3-(((6-Chloro-2-(trifluoromethyl)quinolin-4-yl)amino)methyl)-3-(4-cyano-1H-pyrazol-1-yl)azetidine-1-carboxamide]
